Reference: patent US9604933B2, “Pyrazolochalcones as potential anticancer agents” (COUNCIL OF SCIENTIFIC AND INDUSTRIAL RESEARCH, priority 2013, dated 2017)

What was measured:
M14 = assay: NCI SRB cytotoxicity, melanoma M14; assay type: cell-based; conditions: Homo sapiens, 48 h exposure
Experimental: (§1) The pyrazolochalcones (7e, 8e, 10e, 11e, 12e, 13e and 8f) have been tested against fifty nine human tumor cell lines derived from nine cancer types (leukemia, non-small cell lung cancer, colon cancer, CNS cancer, melanoma, ovarian cancer, renal cancer, prostate cancer and breast cancer) as per the NCI protocol. For each compound, dose response curves for individual cell lines have been measured at a minimum of five concentrations at 10 fold dilutions. A protocol of 48 h continuous drug exposure has been used, and a sulforhodamine B (SRB) protein assay has been used to estimate cell viability or growth. The concentration for 50% cell growth inhibition (GI50), 50% cell death (LC50, 50% growth) and total cell growth inhibition (TGI, 0% growth) values were tabulated (Table-1). DMSO was used as control to calculate the values of GI50, LC50 and TGI. The compounds 7e, 8e, 10e, 11e, 12e, 13e and 8f has been evaluated for their in vitro cytotoxicity in […] cell lines from nine human cancer types of leukemia (K-562, SR), non-small cell lung (Hop-62, NCI-H226, NCI-H522), colon (HCT-116, HCT-15, HCC-2998), CNS (SF-539), melanoma (SK-MEL-5, UACC-62, M14), ovarian (IGROV1), renal (A498), prostate (PC3) and breast (BT-549, MDA-MB-435, HS578T) origin. The results are expressed as percent of cell growth determined relative to that of untreated control cells (Table 2).

BT-549 = assay: NCI SRB cytotoxicity, breast BT-549; assay type: cell-based; conditions: Homo sapiens, 48 h exposure
Experimental: as §1

UO-31 = assay: NCI SRB cytotoxicity, renal UO-31; assay type: cell-based; conditions: Homo sapiens, 48 h exposure
Experimental: as §1

Melanoma = assay: NCI SRB cytotoxicity, melanoma panel average; assay type: cell-based, human; conditions: average of cell lines
Experimental: as §1
(§2) Each cancer type represents the average of six to eight different cancer cell lines.

LOX IMVI = assay: NCI SRB cytotoxicity, melanoma LOX IMVI; assay type: cell-based; conditions: Homo sapiens, 48 h exposure
Experimental: as §1

Prostate = assay: NCI SRB cytotoxicity, prostate panel average; assay type: cell-based, human; conditions: average of cell lines
Experimental: as §1, §2

A498 = assay: NCI SRB cytotoxicity, renal A498; assay type: cell-based; conditions: Homo sapiens, 48 h exposure
Experimental: as §1

NCIH322M = assay: NCI SRB cytotoxicity, non-small cell lung NCIH322M; assay type: cell-based; conditions: Homo sapiens, NCI-H322M, 48 h exposure
Experimental: as §1

TK-10 = assay: NCI SRB cytotoxicity, renal TK-10; assay type: cell-based; conditions: Homo sapiens, 48 h exposure
Experimental: as §1

Colon = assay: NCI SRB cytotoxicity, colon panel average; assay type: cell-based, human; conditions: average of cell lines
Experimental: as §1, §2

MALME-3M = assay: NCI SRB cytotoxicity, melanoma MALME-3M; assay type: cell-based; conditions: Homo sapiens, 48 h exposure
Experimental: as §1

SNB-19 = assay: NCI SRB cytotoxicity, CNS SNB-19; assay type: cell-based; conditions: Homo sapiens, 48 h exposure
Experimental: as §1

SK-MEL-28 = assay: NCI SRB cytotoxicity, melanoma SK-MEL-28; assay type: cell-based; conditions: Homo sapiens, 48 h exposure
Experimental: as §1

T-47D = assay: NCI SRB cytotoxicity, breast T-47D; assay type: cell-based; conditions: Homo sapiens, T47D, 48 h exposure
Experimental: as §1

SF-268 = assay: NCI SRB cytotoxicity, CNS SF-268; assay type: cell-based; conditions: Homo sapiens, 48 h exposure
Experimental: as §1

Breast = assay: NCI SRB cytotoxicity, breast panel average; assay type: cell-based, human; conditions: average of cell lines
Experimental: as §1, §2

COLO-205 = assay: NCI SRB cytotoxicity, colon COLO-205; assay type: cell-based; conditions: Homo sapiens, 48 h exposure
Experimental: as §1

Leukemia = assay: NCI SRB cytotoxicity, leukemia panel average; assay type: cell-based, human; conditions: average of cell lines
Experimental: as §1, §2

HCT-116 = assay: NCI SRB cytotoxicity, colon HCT-116; assay type: cell-based; conditions: Homo sapiens, 48 h exposure
Experimental: as §1

NCI-H522 = assay: NCI SRB cytotoxicity, non-small cell lung NCI-H522; assay type: cell-based; conditions: Homo sapiens, 48 h exposure
Experimental: as §1

SN12C = assay: NCI SRB cytotoxicity, renal SN12C; assay type: cell-based; conditions: Homo sapiens, 48 h exposure
Experimental: as §1

SK-MEL-5 = assay: NCI SRB cytotoxicity, melanoma SK-MEL-5; assay type: cell-based; conditions: Homo sapiens, 48 h exposure
Experimental: as §1

SF-539 = assay: NCI SRB cytotoxicity, CNS SF-539; assay type: cell-based; conditions: Homo sapiens, 48 h exposure
Experimental: as §1

NCI-H226 = assay: NCI SRB cytotoxicity, non-small cell lung NCI-H226; assay type: cell-based; conditions: Homo sapiens, 48 h exposure
Experimental: as §1

UACC-62 = assay: NCI SRB cytotoxicity, melanoma UACC-62; assay type: cell-based; conditions: Homo sapiens, 48 h exposure
Experimental: as §1

NCI/ADR-RES = assay: NCI SRB cytotoxicity, ovarian NCI/ADR-RES; assay type: cell-based; conditions: Homo sapiens, 48 h exposure
Experimental: as §1

HL-60(TB) = assay: NCI SRB cytotoxicity, leukemia HL-60(TB); assay type: cell-based; conditions: Homo sapiens, 48 h exposure
Experimental: as §1

Ovarian = assay: NCI SRB cytotoxicity, ovarian panel average; assay type: cell-based, human; conditions: average of cell lines
Experimental: as §1, §2

MOLT-4 = assay: NCI SRB cytotoxicity, leukemia MOLT-4; assay type: cell-based; conditions: Homo sapiens, 48 h exposure
Experimental: as §1

PC-3 = assay: NCI SRB cytotoxicity, prostate PC-3; assay type: cell-based; conditions: Homo sapiens, 48 h exposure
Experimental: as §1

OVCAR-3 = assay: NCI SRB cytotoxicity, ovarian OVCAR-3; assay type: cell-based; conditions: Homo sapiens, 48 h exposure
Experimental: as §1

ACHN = assay: NCI SRB cytotoxicity, renal ACHN; assay type: cell-based; conditions: Homo sapiens, 48 h exposure
Experimental: as §1

SW-620 = assay: NCI SRB cytotoxicity, colon SW-620; assay type: cell-based; conditions: Homo sapiens, 48 h exposure
Experimental: as §1

A549/ATCC = assay: NCI SRB cytotoxicity, non-small cell lung A549/ATCC; assay type: cell-based; conditions: Homo sapiens, 48 h exposure
Experimental: as §1

RXF 393 = assay: NCI SRB cytotoxicity, renal RXF 393; assay type: cell-based; conditions: Homo sapiens, 48 h exposure
Experimental: as §1

CCRF-CEM = assay: NCI SRB cytotoxicity, leukemia CCRF-CEM; assay type: cell-based; conditions: Homo sapiens, 48 h exposure
Experimental: as §1

CNS = assay: NCI SRB cytotoxicity, CNS panel average; assay type: cell-based, human; conditions: average of cell lines
Experimental: as §1, §2

CAKI-1 = assay: NCI SRB cytotoxicity, renal CAKI-1; assay type: cell-based; conditions: Homo sapiens, 48 h exposure
Experimental: as §1

HT29 = assay: NCI SRB cytotoxicity, colon HT29; assay type: cell-based; conditions: Homo sapiens, HT-29, 48 h exposure
Experimental: as §1

[1] = Homo sapiens, read-out: Log10 GI50 (concentration in mol/L causing 50% growth inhibition) (converted)
[2] = Homo sapiens, read-out: Log10 LC50 (concentration in mol/L causing 50% cell death) (converted)

**Q.** Which GI50 (M14) does the source give for `COc1ccc(C(=O)/C=C/c2cc(-c3cc(OC)c(OC)c(OC)c3)n[nH]2)cc1OC` [8e, (E)-1-(3,4-dimethoxyphenyl)-3-(3-(3,4,5-trimethoxyphenyl)-1H-pyrazol-5-yl)prop-2-en-1-one] here?
**A.** 1.84 µM

**Q.** And the GI50 (BT-549)?
**A.** 1.44 µM

**Q.** What about the GI50 (UO-31) of the same compound?
**A.** 1.28 µM

**Q.** And the GI50 (Melanoma; [1])?
**A.** 1.7 µM

**Q.** And the LC50 (Melanoma; [2])?
**A.** 6.17 µM

**Q.** What about the “Log10 TGI (concentration in mol/L causing total growth inhibition)” value (Melanoma) of the same compound?
**A.** −5.49 mol/L

**Q.** What about the GI50 (LOX IMVI) of the same compound?
**A.** 1.38 µM

**Q.** And the GI50 (Prostate; [1])?
**A.** 0.871 µM

**Q.** And the CC50 (Prostate; [2])?
**A.** 5.25 µM

**Q.** What about the “Log10 TGI (concentration in mol/L causing total growth inhibition (0% growth))” value (Prostate) of the same compound?
**A.** −5.64 mol/L

**Q.** What about the GI50 (A498) of the same compound?
**A.** 1.48 µM

**Q.** And the GI50 (NCIH322M)?
**A.** 1.52 µM

**Q.** What about the GI50 (TK-10) of the same compound?
**A.** 1.33 µM

**Q.** What about the GI50 (Colon; [1]) of the same compound?
**A.** 1.41 µM

**Q.** And the LC50 (Colon; [2])?
**A.** 6.17 µM

**Q.** And the “Log10 TGI (concentration in mol/L causing total growth inhibition)” value (Colon)?
**A.** −5.52 mol/L

**Q.** What about the GI50 (MALME-3M) of the same compound?
**A.** 1.99 µM

**Q.** What about the GI50 (SNB-19) of the same compound?
**A.** 1.42 µM

**Q.** And the GI50 (SK-MEL-28)?
**A.** 1.78 µM

**Q.** What about the GI50 (T-47D) of the same compound?
**A.** 1.63 µM

**Q.** And the GI50 (SF-268)?
**A.** 1.82 µM

**Q.** And the GI50 (Breast; [1])?
**A.** 1.23 µM

**Q.** What about the CC50 (Breast; [2]) of the same compound?
**A.** 15.1 µM

**Q.** And the “Log10 TGI (concentration in mol/L causing total growth inhibition (0% growth))” value (Breast)?
**A.** −5.47 mol/L

**Q.** And the GI50 (COLO-205)?
**A.** 1.74 µM

**Q.** What about the GI50 (Leukemia; [1]) of the same compound?
**A.** 0.794 µM

**Q.** What about the CC50 (Leukemia; [2]) of the same compound?
**A.** 97.7 µM

**Q.** What about the “Log10 TGI (concentration in mol/L causing total growth inhibition (0% growth))” value (Leukemia) of the same compound?
**A.** −5.19 mol/L

**Q.** And the GI50 (HCT-116)?
**A.** 0.88 µM

**Q.** And the GI50 (NCI-H522)?
**A.** 0.18 µM

**Q.** What about the GI50 (SN12C) of the same compound?
**A.** 1.54 µM

**Q.** And the GI50 (SK-MEL-5)?
**A.** 1.65 µM

**Q.** What about the GI50 (SF-539) of the same compound?
**A.** 1.27 µM

**Q.** What about the GI50 (NCI-H226) of the same compound?
**A.** 1.69 µM

**Q.** And the GI50 (UACC-62)?
**A.** 1.74 µM

**Q.** And the GI50 (NCI/ADR-RES)?
**A.** 3.13 µM

**Q.** What about the GI50 (HL-60(TB)) of the same compound?
**A.** 1.44 µM

**Q.** And the GI50 (Ovarian; [1])?
**A.** 2.09 µM

**Q.** What about the CC50 (Ovarian; [2]) of the same compound?
**A.** 15.1 µM

**Q.** What about the “Log10 TGI (concentration in mol/L causing total growth inhibition (0% growth))” value (Ovarian) of the same compound?
**A.** −5.29 mol/L

**Q.** What about the GI50 (MOLT-4) of the same compound?
**A.** 2.11 µM

**Q.** What about the GI50 (PC-3) of the same compound?
**A.** 1.36 µM

**Q.** What about the GI50 (OVCAR-3) of the same compound?
**A.** 1.68 µM

**Q.** And the GI50 (ACHN)?
**A.** 1.66 µM

**Q.** And the GI50 (SW-620)?
**A.** 1.37 µM

**Q.** And the GI50 (A549/ATCC)?
**A.** 1.86 µM

**Q.** What about the GI50 (RXF 393) of the same compound?
**A.** 1.35 µM

**Q.** What about the GI50 (CCRF-CEM) of the same compound?
**A.** 0.62 µM

**Q.** What about the GI50 (CNS; [1]) of the same compound?
**A.** 1.41 µM

**Q.** What about the LC50 (CNS; [2]) of the same compound?
**A.** 6.17 µM

**Q.** And the “Log10 TGI (concentration in mol/L causing total growth inhibition (0% growth))” value (CNS)?
**A.** −5.53 mol/L

**Q.** What about the GI50 (CAKI-1) of the same compound?
**A.** 2.2 µM

**Q.** And the GI50 (HT29)?
**A.** 1.62 µM
